These compounds were tested against BTK (Homo sapiens (Human), UniProt Q06187) (assay: biochemical).
BTK, sequence (Q06187 whole entry, looked up, species assumed): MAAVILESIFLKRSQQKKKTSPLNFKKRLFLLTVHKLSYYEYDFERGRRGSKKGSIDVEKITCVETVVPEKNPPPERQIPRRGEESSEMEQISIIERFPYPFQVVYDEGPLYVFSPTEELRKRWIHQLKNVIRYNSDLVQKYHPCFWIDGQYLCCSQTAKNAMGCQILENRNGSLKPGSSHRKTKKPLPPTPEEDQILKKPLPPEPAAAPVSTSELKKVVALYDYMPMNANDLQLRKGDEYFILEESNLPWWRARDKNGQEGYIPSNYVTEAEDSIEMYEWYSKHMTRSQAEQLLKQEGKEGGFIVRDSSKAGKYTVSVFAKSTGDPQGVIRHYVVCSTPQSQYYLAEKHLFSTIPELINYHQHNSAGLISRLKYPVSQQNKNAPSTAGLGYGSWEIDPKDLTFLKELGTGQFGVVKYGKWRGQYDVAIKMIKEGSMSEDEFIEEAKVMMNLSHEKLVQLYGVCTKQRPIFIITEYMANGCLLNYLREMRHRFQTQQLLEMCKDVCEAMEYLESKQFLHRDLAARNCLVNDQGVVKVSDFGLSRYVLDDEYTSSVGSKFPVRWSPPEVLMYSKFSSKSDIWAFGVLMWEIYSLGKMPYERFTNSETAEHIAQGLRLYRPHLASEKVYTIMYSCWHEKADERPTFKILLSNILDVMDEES
With `CC#CC(=O)N1CCC[C@H]1c1nc(-c2ccc(COc3ccccc3F)cc2)c2cnccn12` [Example 146, (S)-1-(2-(1-(4-((2-fluorophenoxy)methyl)phenyl)imidazo[1,5-a]pyrazin-3-yl)pyrrolidin-1-yl)but-2-yn-1-one] the IC50 was 1000 to 10000 nM. Work on `CC#CC(=O)N1CC[C@@H](c2nc(-c3ccc(Oc4cccc(OC)c4F)cc3)c3cncc(OC(C)C)n23)C1` [Example 115, (R)-1-(3-(1-(4-(2-fluoro-3-methoxyphenoxy)phenyl)-5-isopropoxyimidazo[1,5-a]pyrazin-3-yl)pyrrolidin-1-yl)but-2-yn-1-one] yielded an IC50 of 100 to 1000 nM. Compound `CC#CC(=O)N1CCC[C@H]1c1nc(-c2ccc(COc3ccccc3)cc2)c2cnccn12` [Example 144, (S)-1-(2-(1-(4-(phenoxymethyl)phenyl)imidazo[1,5-a]pyrazin-3-yl)pyrrolidin-1-yl)but-2-yn-1-one] has an IC50 of 1000 to 10000 nM. `CC#CC(=O)N1CCC[C@H]1c1nc(-c2ccc(Oc3cccc(OC)c3F)cc2)c2c(O)nccn12` [Example 35, (S)-1-(2-(1-(4-(2-fluoro-3-methoxyphenoxy)phenyl)-8-hydroxyimidazo[1,5-a]pyrazin-3-yl)pyrrolidin-1-yl)but-2-yn-1-one] gave an IC50 of 1000 to 10000 nM. Work on `CC#CC(=O)N1CCC[C@@H](c2nc(-c3ccc(C(=O)Nc4ccccn4)cc3)c3cncc(C)n23)C1` [Example 179, (R)-4-(3-(1-(but-2-ynoyl)piperidin-3-yl)-5-methylimidazo[1,5-a]pyrazin-1-yl)-N-(pyridin-2-yl)benzamide] yielded an IC50 of 1000 to 10000 nM. Compound `COc1cccc(Oc2ccc(-c3nc([C@@H]4CCCN4Cc4ccccc4)n4ccncc34)cc2)c1F` [Example 32, (S)-3-(1-benzylpyrrolidin-2-yl)-1-(4-(2-fluoro-3-methoxyphenoxy)phenyl)imidazo[1,5-a]pyrazine] has an IC50 of 1000 to 10000 nM. Work on `CC#CC(=O)N1CCCC[C@H]1c1nc(-c2ccc(COc3cccc(F)c3)cc2)c2c(C)nccn12` [Example 157, (S)-1-(2-(1-(4-((3-fluorophenoxy)methyl)phenyl)-8-methylimidazo[1,5-a]pyrazin-3-yl)piperidin-1-yl)but-2-yn-1-one] yielded an IC50 of 100 to 1000 nM. `C=CC(=O)N1CCC[C@H]1c1nc(-c2ccc(Oc3cccc(OC)c3F)cc2)c2c(C(N)=O)nccn12` [Example 37, (S)-3-(1-acryloylpyrrolidin-2-yl)-1-(4-(2-fluoro-3-methoxyphenoxy)phenyl)imidazo[1,5-a]pyrazine-8-carboxamide] gave an IC50 of 1000 to 10000 nM. Work on `CC#CC(=O)N1CCC[C@@H](c2nc(-c3ccc(Oc4cccc(OC)c4)cc3)c3cnccn23)C1` [Example 52, (R)-1-(3-(1-(4-(3-methoxyphenoxy)phenyl)imidazo[1,5-a]pyrazin-3-yl)piperidin-1-yl)but-2-yn-1-one] yielded an IC50 of 100 to 1000 nM. In the case of `C=CC(=O)N1CC[C@@H](c2nc(-c3ccc(Oc4cccc(OC)c4F)cc3)c3c(O)nccn23)C1` [Example 113, (R)-1-(3-(1-(4-(2-fluoro-3-methoxyphenoxy)phenyl)-8-hydroxyimidazo[1,5-a]pyrazin-3-yl)pyrrolidin-1-yl)prop-2-en-1-one], the IC50 is reported as 100 to 1000 nM. For `CC#CC(=O)N1CCC[C@H]1c1nc(-c2ccc(C(=O)Nc3ccccn3)cc2)c2c(C)ncc(C)n12` [Example 175, (S)-4-(3-(1-(but-2-ynoyl)pyrrolidin-2-yl)-5,8-dimethylimidazo[1,5-a]pyrazin-1-yl)-N-(pyridin-2-yl)benzamide], the IC50 was 100 to 1000 nM. With `C=CC(=O)N1CCCC[C@H]1c1nc(-c2ccc(C(=O)Nc3ccccn3)cc2)c2cnccn12` [Example 168, (S)-4-(3-(1-acryloylpiperidin-2-yl)imidazo[1,5-a]pyrazin-1-yl)-N-(pyridin-2-yl) benzamide] the IC50 was 10 to 100 nM. With `CC#CC(=O)N1CCC[C@H]1c1nc(-c2ccc(OCc3ccc(F)c(F)c3)cc2)c2cnccn12` [Example 134, (S)-1-(2-(1-(4-((3,4-difluorobenzyl)oxy)phenyl)imidazo[1,5-a]pyrazin-3-yl)pyrrolidin-1-yl)but-2-yn-1-one] the IC50 was 1000 to 10000 nM. `CC#CC(=O)N1CCCC[C@H]1c1nc(-c2ccc(Oc3cccc(OC)c3F)cc2)c2cncc(C)n12` [Example 79, (S)-1-(2-(1-(4-(2-fluoro-3-methoxyphenoxy)phenyl)-5-methylimidazo[1,5-a]pyrazin-3-yl)piperidin-1-yl)but-2-yn-1-one] was tested, and the IC50 was 100 to 1000 nM. In the case of `C=CC(=O)N1CCCC[C@H]1c1nc(-c2ccc(Oc3cccc(OC)c3F)cc2)c2c(C(F)(F)F)nccn12` [Example 121, (S)-1-(2-(1-(4-(2-fluoro-3-methoxyphenoxy)phenyl)-8-(trifluoromethyl)imidazo[1,5-a]pyrazin-3-yl)piperidin-1-yl)prop-2-en-1-one], the IC50 is reported as 1000 to 10000 nM. `C=CC(=O)N1CCCC[C@H]1c1nc(-c2cccc(OCc3cccc(C(F)(F)F)c3)c2)c2c(C)nccn12` [Example 162, (S)-1-(2-(8-methyl-1-(3-((3-(trifluoromethyl)benzyl)oxy)phenyl)imidazo[1,5-a]pyrazin-3-yl)piperidin-1-yl)prop-2-en-1-one] showed an IC50 of 1000 to 10000 nM. For `CC#CC(=O)N1CCC[C@H]1c1nc(-c2ccc(Oc3cccc(OC)c3F)cc2)c2cnccn12` [Example 34, (S)-1-(2-(1-(4-(2-fluoro-3-methoxyphenoxy)phenyl)imidazo[1,5-a]pyrazin-3-yl)pyrrolidin-1-yl)but-2-yn-1-one], the IC50 was 10 to 100 nM. Compound `CC#CC(=O)N1CCC[C@H]1c1nc(-c2ccc(Oc3cccc(OC)c3F)cc2)c2c(CO)nccn12` [Example 123, (S)-1-(2-(1-(4-(2-fluoro-3-methoxyphenoxy)phenyl)-8-(hydroxymethyl)imidazo[1,5-a]pyrazin-3-yl)pyrrolidin-1-yl)but-2-yn-1-one] has an IC50 of 100 to 1000 nM. Work on `CC#CC(=O)N1CCCC[C@H]1c1nc(-c2ccc(C(=O)Nc3ccccn3)cc2)c2cncc(C)n12` [Example 187, (S)-4-(3-(1-(but-2-ynoyl)piperidin-2-yl)-5-methylimidazo[1,5-a]pyrazin-1-yl)-N-(pyridin-2-yl)benzamide] yielded an IC50 of 1000 to 10000 nM. `CC#CC(=O)N1CCCC[C@H]1c1nc(-c2ccc(Oc3cccc(OC)c3F)cc2)c2cnccn12` [Example 25, (S)-1-(2-(1-(4-(2-fluoro-3-methoxyphenoxy)phenyl)imidazo[1,5-a]pyrazin-3-yl)piperidin-1-yl)but-2-yn-1-one] gave an IC50 of 10 to 100 nM. `C=CC(=O)N1CC[C@@H](c2nc(-c3ccc(Oc4cccc(OC)c4F)cc3)c3c(C(C)C)nccn23)C1` [Example 111, (R)-1-(3-(1-(4-(2-fluoro-3-methoxyphenoxy)phenyl)-8-isopropylimidazo[1,5-a]pyrazin-3-yl)pyrrolidin-1-yl)prop-2-en-1-one] showed an IC50 of 1000 to 10000 nM. `CC#CC(=O)N1CC[C@@H](c2nc(-c3ccc(Oc4cccc(OC)c4F)cc3)c3c(CF)nccn23)C1` [Example 120, (R)-1-(3-(1-(4-(2-fluoro-3-methoxyphenoxy)phenyl)-8-(fluoromethyl)imidazo[1,5-a]pyrazin-3-yl)pyrrolidin-1-yl)but-2-yn-1-one] showed an IC50 of 10 to 100 nM. `C=CC(=O)N1CCCC[C@H]1c1nc(-c2ccc(Oc3cccc(OC)c3F)cc2)c2cncc(C)n12` [Example 78, (S)-1-(2-(1-(4-(2-fluoro-3-methoxyphenoxy)phenyl)-5-methylimidazo[1,5-a]pyrazin-3-yl)piperidin-1-yl)prop-2-en-1-one] gave an IC50 of 10 to 100 nM. With `C=CC(=O)N1CCC[C@H]1c1nc(-c2ccc(Oc3ccccc3)cc2Cl)c2cnccn12` [Example 13, (S)-1-(2-(1-(2-chloro-4-phenoxyphenyl)imidazo[1,5-a]pyrazin-3-yl)pyrrolidin-1-yl)prop-2-en-1-one] the IC50 was 10 to 100 nM. Compound `C=CC(=O)N1CCC[C@H]1c1nc(-c2ccc(COc3ccccc3)cc2)c2cnccn12` [Example 143, (S)-1-(2-(1-(4-(phenoxymethyl)phenyl)imidazo[1,5-a]pyrazin-3-yl)pyrrolidin-1-yl)prop-2-en-1-one] has an IC50 of 10 to 100 nM. `CC#CC(=O)N1CCC[C@H]1c1nc(-c2ccc(COc3ccc(F)cc3)cc2)c2cnccn12` [Example 128, (S)-1-(2-(1-(4-((4-fluorophenoxy)methyl)phenyl)imidazo[1,5-a]pyrazin-3-yl)pyrrolidin-1-yl)but-2-yn-1-one] showed an IC50 of 1000 to 10000 nM. Compound `C=CC(=O)N1CCC[C@H]1c1nc(-c2ccc(Oc3ccccc3)c(Cl)c2)c2cnccn12` [Example 26, (S)-1-(2-(1-(3-chloro-4-phenoxyphenyl)imidazo[1,5-a]pyrazin-3-yl)pyrrolidin-1-yl)prop-2-en-1-one] has an IC50 of 10 to 100 nM. In the case of `CC#CC(=O)N1CC[C@@H](c2nc(-c3ccc(C(=O)Nc4cc(C(F)(F)F)ccn4)cc3F)c3cnccn23)C1` [Example 212, (R)-4-(3-(1-(but-2-ynoyl)pyrrolidin-3-yl)imidazo [1,5-a]pyrazin-1-yl)-3-fluoro-N-(4-(trifluoromethyl)pyridin-2-yl)benzamide], the IC50 is reported as 10 to 100 nM. `CC#CC(=O)N1CC[C@@H](c2nc(-c3ccc(C(=O)Nc4ccccn4)cc3)c3c(C)ncc(OCC)n23)C1` [Example 205, (R)-4-(3-(1-(but-2-ynoyl)pyrrolidin-3-yl)-5-ethoxy-8-methylimidazo[1,5-a]pyrazin-1-yl)-N-(pyridin-2-yl)benzamide] showed an IC50 of 10 to 100 nM. For `CC#CC(=O)N1CC[C@@H](c2nc(-c3ccc(Oc4cccc(OC)c4F)cc3)c3c(C)ncc(C)n23)C1` [Example 75, (R)-1-(3-(1-(4-(2-fluoro-3-methoxyphenoxy)phenyl)-5,8-dimethylimidazo[1,5-a]pyrazin-3-yl)pyrrolidin-1-yl)but-2-yn-1-one], the IC50 was 10 to 100 nM. `CC#CC(=O)N1CCC[C@H]1c1nc(-c2ccc(COc3cccc(F)c3F)cc2)c2cnccn12` [Example 130, (S)-1-(2-(1-(4-((2,3-difluorophenoxy)methyl)phenyl)imidazo[1,5-a]pyrazin-3-yl)pyrrolidin-1-yl)but-2-yn-1-one] gave an IC50 of 1000 to 10000 nM. For `CC#CC(=O)N1CCC[C@H]1c1nc(-c2ccc(Oc3cccc(F)c3)cc2)c2cnccn12` [Example 7, (S)-1-(2-(1-(4-(3-fluorophenoxy)phenyl)imidazo[1,5-a]pyrazin-3-yl)pyrrolidin-1-yl)but-2-yn-1-one], the IC50 was 10 to 100 nM. For `C=CC(=O)N1CCCC[C@H]1c1nc(-c2ccc(OCc3cccc(F)c3)cc2)c2c(C)nccn12` [Example 139, (S)-1-(2-(1-(4-((3-fluorobenzyl)oxy)phenyl)-8-methylimidazo[1,5-a]pyrazin-3-yl)piperidin-1-yl)prop-2-en-1-one], the IC50 was 10 to 100 nM.

From patent US10933063B2 (priority 2017, dated 2021)
